# Assay results reported in ChEMBL document CHEMBL3616411, “Discovery of 1-hydroxypyridine-2-thiones as selective histone deacetylase inhibitors and their potential application for treating leukemia” (Bioorg Med Chem Lett, 2015).
# What was measured:
# cells = assay type: functional, cell-based; conditions: Homo sapiens, IR-K562
# Histone deacetylase 4 = Histone deacetylase 4 (Homo sapiens, UniProt P56524); assay: Inhibition of HDAC4 (unknown origin) using Boc-Lys(trifluoroacetyl)-AMC fluorogenic acetylated peptide substrate by fluorometric assay
# Histone deacetylase 5 = Histone deacetylase 5 (Homo sapiens, UniProt Q9UQL6); assay: Inhibition of HDAC5 (unknown origin) using Boc-Lys(trifluoroacetyl)-AMC fluorogenic acetylated peptide substrate by fluorometric assay
# Histone deacetylase 2 = Histone deacetylase 2 (Homo sapiens, UniProt Q92769)
# K562 = assay: cells; assay type: functional, cell-based; conditions: Homo sapiens
# U-937 = assay: cells; assay type: functional, cell-based; conditions: Homo sapiens
# THP-1 = assay: cells; assay type: functional, cell-based; conditions: Homo sapiens
# [1] = target: T1, Protein deacetylase HDAC6 (Homo sapiens, UniProt Q9UBN7); assay: Inhibition of HDAC6 (unknown origin) using RHKK(Ac) fluorogenic acetylated peptide substrate by fluorometric assay
# T1 sequence (Q9UBN7 whole entry): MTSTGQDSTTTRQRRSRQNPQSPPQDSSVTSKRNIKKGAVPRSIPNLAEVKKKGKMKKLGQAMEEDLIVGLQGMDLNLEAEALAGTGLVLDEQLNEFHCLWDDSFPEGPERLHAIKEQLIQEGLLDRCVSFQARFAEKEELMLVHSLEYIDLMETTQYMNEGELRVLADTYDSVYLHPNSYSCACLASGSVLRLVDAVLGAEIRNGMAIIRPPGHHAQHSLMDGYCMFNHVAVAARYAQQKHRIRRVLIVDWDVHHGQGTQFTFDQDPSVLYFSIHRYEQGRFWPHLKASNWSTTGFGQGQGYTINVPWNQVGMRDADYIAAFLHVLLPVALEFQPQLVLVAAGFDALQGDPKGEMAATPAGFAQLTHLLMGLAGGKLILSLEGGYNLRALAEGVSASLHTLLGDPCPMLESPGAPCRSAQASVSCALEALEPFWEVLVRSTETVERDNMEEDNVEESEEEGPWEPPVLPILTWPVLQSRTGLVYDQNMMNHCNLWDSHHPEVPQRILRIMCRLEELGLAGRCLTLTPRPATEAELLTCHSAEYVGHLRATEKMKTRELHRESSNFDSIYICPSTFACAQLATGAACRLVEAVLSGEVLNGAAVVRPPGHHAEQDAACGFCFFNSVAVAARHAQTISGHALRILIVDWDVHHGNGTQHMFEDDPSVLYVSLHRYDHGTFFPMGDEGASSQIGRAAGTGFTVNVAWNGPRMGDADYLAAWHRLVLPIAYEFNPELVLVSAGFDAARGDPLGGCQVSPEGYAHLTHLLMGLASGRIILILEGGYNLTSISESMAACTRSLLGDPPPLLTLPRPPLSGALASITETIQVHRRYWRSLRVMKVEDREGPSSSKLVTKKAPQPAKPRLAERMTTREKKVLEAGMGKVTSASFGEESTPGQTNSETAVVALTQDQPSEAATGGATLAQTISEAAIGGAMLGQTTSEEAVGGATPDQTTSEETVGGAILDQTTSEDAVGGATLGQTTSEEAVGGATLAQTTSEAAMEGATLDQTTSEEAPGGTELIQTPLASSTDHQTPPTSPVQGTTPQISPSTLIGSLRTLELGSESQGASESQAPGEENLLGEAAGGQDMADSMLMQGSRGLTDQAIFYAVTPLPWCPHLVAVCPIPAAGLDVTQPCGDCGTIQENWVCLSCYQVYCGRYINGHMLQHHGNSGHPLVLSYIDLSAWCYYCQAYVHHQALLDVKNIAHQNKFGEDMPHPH
# Histone deacetylase 1 = Histone deacetylase 1 (Homo sapiens, UniProt Q13547); assay: Inhibition of HDAC1 (unknown origin) using RHKK(Ac) fluorogenic acetylated peptide substrate by fluorometric assay
# Histone deacetylase 8 = target: T2, Histone deacetylase 8 (Homo sapiens, UniProt Q9BY41); assay: Inhibition of HDAC8 (unknown origin) using RHK(Ac)K(Ac) fluorogenic acetylated peptide substrate by fluorometric assay
# T2 sequence (Q9BY41 whole entry): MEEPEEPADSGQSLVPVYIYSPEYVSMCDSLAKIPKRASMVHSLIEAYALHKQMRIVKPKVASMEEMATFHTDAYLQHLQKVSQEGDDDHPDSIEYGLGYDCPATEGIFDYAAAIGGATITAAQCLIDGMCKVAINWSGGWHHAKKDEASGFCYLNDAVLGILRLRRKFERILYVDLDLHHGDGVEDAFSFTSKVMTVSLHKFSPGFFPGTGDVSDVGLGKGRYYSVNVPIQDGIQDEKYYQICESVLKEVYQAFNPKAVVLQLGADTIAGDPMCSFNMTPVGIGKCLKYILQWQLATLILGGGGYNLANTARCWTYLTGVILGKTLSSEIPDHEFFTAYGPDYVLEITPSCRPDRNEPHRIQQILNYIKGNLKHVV
# Histone deacetylase 9 = Histone deacetylase 9 (Homo sapiens, UniProt Q9UKV0); assay: Inhibition of HDAC9 (unknown origin) using Boc-Lys(trifluoroacetyl)-AMC fluorogenic acetylated peptide substrate by fluorometric assay
# [2] = Cytotoxicity against HEK293 cells assessed as reduction in cell viability; assay type: cell-based; conditions: human
# in vitro [3] = conditions: human, HEK293 cells (CC50) versus THP1 cells (IC50)
# in vitro [4] = conditions: human
# in vitro [5] = conditions: human, HEK293 cells (CC50) versus U937 cells (IC50)
# in vitro [6] = conditions: human, HEK293 cells (CC50) versus K562 cells (IC50)
# [7] = Cytotoxicity against imatinib resistant human IR-K562 cells assessed as cell viability at 250 nM incubated for 3 days (reference value: 79.5%); assay type: functional; conditions: IR-K562, 72 h, read-out: Activity
# [8] = Cytotoxicity against imatinib resistant human IR-K562 cells assessed as cell viability at 250 nM incubated for 8 days (reference value: 89.4%); assay type: functional; conditions: IR-K562, 192 h, read-out: Activity
# [9] = Cytotoxicity against imatinib resistant human IR-K562 cells assessed as cell viability at 250 nM incubated for 1 day (reference value: 73.9%); assay type: functional; conditions: IR-K562, 24 h, read-out: Activity
# [10] = Cytotoxicity against imatinib resistant human IR-K562 cells assessed as cell viability at 250 nM incubated for 5 days (reference value: 86.7%); assay type: functional; conditions: IR-K562, 120 h, read-out: Activity
# Histone deacetylase 9, sequence (Q9UKV0 whole entry): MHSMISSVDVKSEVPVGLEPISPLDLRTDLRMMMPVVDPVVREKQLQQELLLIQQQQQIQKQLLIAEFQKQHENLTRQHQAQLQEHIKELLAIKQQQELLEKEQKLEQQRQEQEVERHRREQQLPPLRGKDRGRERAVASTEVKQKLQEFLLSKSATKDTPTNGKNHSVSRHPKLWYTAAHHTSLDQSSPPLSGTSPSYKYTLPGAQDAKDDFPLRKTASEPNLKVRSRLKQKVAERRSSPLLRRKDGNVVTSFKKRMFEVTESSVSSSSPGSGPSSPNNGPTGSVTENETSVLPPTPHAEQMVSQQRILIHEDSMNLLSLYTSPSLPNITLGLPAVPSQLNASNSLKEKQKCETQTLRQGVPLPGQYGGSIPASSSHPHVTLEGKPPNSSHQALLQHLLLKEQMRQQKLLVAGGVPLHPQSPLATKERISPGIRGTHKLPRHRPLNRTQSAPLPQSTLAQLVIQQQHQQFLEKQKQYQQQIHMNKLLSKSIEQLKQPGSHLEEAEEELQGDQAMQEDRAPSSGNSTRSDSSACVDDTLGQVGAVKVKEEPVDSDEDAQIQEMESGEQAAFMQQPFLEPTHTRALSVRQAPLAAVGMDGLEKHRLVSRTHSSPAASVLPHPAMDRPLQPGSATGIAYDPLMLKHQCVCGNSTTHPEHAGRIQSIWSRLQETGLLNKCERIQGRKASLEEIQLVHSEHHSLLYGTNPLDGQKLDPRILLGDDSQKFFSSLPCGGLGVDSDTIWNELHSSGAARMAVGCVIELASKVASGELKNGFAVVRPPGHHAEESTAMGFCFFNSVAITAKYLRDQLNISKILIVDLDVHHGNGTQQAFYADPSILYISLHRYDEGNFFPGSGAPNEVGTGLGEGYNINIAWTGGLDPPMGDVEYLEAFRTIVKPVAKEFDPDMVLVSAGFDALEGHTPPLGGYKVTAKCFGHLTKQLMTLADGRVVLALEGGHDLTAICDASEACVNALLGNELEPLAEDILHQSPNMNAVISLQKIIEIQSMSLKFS
# Histone deacetylase 2, sequence (Q92769 whole entry): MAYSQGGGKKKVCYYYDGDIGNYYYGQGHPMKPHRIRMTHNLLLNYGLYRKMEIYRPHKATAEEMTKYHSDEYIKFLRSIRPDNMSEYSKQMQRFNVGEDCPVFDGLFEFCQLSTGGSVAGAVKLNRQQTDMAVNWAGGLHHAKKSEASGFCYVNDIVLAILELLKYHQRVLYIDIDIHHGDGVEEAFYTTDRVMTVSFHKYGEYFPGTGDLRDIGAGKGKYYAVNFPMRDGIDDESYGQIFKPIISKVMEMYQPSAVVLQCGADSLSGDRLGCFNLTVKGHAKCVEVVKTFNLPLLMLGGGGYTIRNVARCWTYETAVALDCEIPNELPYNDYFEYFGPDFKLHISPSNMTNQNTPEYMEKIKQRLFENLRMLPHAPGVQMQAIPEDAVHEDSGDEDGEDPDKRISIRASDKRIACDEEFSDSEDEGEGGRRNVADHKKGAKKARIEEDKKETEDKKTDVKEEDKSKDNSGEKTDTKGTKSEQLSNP
# Histone deacetylase 1, sequence (Q13547 whole entry): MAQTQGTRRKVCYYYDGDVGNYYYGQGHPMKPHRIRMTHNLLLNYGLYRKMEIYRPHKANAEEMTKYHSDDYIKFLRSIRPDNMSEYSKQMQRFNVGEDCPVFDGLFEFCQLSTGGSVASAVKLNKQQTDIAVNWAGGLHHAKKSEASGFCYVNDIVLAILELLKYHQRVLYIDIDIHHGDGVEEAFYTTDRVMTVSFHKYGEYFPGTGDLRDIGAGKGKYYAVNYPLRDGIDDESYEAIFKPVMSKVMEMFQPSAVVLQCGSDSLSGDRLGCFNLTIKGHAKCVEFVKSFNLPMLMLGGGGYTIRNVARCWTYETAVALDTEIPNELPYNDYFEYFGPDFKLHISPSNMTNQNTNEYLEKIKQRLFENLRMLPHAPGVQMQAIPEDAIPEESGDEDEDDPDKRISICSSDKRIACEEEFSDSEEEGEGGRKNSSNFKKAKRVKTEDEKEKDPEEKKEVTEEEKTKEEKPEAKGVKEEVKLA
# Histone deacetylase 4, sequence (P56524 whole entry): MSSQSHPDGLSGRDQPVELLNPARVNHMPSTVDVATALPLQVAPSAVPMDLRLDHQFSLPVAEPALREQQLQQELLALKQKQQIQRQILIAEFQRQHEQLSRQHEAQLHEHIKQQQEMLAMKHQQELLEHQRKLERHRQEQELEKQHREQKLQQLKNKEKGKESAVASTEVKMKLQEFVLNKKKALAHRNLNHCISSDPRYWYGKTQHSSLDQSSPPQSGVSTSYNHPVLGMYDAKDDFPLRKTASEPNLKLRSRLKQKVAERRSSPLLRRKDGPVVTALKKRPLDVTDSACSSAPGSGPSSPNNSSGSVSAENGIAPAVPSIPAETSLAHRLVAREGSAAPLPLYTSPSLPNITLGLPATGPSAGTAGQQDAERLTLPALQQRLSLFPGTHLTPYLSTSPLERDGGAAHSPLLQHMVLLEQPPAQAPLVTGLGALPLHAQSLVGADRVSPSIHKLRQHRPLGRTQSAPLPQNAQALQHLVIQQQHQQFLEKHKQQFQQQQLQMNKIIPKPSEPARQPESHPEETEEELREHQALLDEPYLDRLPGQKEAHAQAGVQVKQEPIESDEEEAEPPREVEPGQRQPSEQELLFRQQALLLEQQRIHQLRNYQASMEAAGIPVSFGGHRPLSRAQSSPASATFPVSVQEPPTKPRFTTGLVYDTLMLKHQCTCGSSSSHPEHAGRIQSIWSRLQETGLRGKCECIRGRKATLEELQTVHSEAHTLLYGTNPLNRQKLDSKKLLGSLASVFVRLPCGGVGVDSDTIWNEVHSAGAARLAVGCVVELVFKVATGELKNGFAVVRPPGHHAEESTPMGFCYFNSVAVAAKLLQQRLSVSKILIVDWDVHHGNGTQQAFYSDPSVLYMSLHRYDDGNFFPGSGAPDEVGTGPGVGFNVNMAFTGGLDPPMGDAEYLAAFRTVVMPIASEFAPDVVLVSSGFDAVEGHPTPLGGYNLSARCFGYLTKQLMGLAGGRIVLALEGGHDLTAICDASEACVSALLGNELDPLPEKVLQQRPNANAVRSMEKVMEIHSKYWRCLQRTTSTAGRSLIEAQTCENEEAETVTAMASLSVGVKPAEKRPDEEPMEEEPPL
# Histone deacetylase 5, sequence (Q9UQL6 whole entry): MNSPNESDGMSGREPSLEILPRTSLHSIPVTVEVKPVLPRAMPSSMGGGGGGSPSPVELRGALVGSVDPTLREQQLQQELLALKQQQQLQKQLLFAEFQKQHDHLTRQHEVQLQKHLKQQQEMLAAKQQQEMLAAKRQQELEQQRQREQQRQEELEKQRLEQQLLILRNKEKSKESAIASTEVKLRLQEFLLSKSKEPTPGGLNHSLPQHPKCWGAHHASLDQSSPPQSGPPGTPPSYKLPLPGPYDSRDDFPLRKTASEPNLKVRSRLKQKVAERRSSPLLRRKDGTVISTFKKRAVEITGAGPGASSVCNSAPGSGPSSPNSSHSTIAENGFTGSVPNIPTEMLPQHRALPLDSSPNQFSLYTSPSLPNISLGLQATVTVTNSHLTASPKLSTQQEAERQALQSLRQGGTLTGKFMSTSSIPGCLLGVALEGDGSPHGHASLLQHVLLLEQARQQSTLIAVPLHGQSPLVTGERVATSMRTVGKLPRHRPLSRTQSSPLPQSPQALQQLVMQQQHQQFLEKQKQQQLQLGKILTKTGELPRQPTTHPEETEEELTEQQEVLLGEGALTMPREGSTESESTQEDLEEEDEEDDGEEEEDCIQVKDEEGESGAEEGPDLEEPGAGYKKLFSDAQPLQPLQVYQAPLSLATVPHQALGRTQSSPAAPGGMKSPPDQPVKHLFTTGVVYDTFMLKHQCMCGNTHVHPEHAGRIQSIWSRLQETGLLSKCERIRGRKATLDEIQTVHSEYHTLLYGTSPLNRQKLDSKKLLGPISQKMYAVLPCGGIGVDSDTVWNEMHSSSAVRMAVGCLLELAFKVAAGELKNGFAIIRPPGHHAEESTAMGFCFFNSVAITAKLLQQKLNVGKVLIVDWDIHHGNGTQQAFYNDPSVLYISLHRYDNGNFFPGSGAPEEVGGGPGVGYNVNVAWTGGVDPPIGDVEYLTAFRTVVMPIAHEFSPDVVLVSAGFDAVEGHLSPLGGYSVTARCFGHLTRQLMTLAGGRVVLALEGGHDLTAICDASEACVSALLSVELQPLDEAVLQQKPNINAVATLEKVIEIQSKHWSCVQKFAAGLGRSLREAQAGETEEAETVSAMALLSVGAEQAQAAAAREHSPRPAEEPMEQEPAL
SMILES,IC50 (cells) [µM],IC50 (Histone deacetylase 4) [µM],IC50 (Histone deacetylase 5) [µM],IC50 (Histone deacetylase 2) [µM],IC50 (K562) [µM],IC50 (U-937) [µM],IC50 (THP-1) [µM],IC50 [1] [µM],IC50 (Histone deacetylase 1) [µM],IC50 (Histone deacetylase 8) [µM],IC50 (Histone deacetylase 9) [µM],CC50 [2] [µM],selectivity ratio (in vitro [3]),selectivity ratio (in vitro [4]),selectivity ratio (in vitro [5]),selectivity ratio (in vitro [6]),viability at […] [7] [%],viability at […] [8] [%],viability at […] [9] [%],viability at […] [10] [%]
C[C@@H](NC(=O)c1cccc(=S)n1O)C(=O)O,18,100,37,400,3.7,25,2.2,4.2,270,0.98,58,–,–,–,–,–,–,–,–,–
O=C(N[C@@H](C(=O)O)c1ccccc1)c1cccc(=S)n1O,24,64,27,95,8.7,57,6.4,8.8,93,1.2,34,76,–,–,–,–,–,–,–,–
O=C(O)c1cccc(=S)n1O,52,71,35,710,18,75,25,0.15,43,3.3,47,97,–,–,–,–,–,–,–,–
Cc1nc(Nc2ncc(C(=O)Nc3c(C)cccc3Cl)s2)cc(N2CCN(CCO)CC2)n1 [DASATINIB],1.9,–,–,–,0.08,–,6,–,–,–,–,16,2.6,8.4,< 0.1,200,–,–,–,–
Cc1ccc(NC(=O)c2ccc(CN3CCN(C)CC3)cc2)cc1Nc1nccc(-c2cccnc2)n1 [IMATINIB],1.1,–,–,–,0.06,19,25,–,–,–,–,8.4,0.34,7.6,0.44,140,58.7,71.1,47,65.1
O=C(CCCCCCC(=O)Nc1ccccc1)NO [VORINOSTAT],–,–,–,–,–,–,–,–,–,–,–,100,–,–,–,–,–,–,–,–
